For this test, the target named is P. falciparum apicoplast DNA polymerase (Pf-apPOL) (Plasmodium falciparum, UniProt Q8ILY1). The experiment in a line: Fluorescence-based high-throughput DNA polymerase assay (molecular beacon), primary screen and dose-response. It counts as biochemical. The following applies: for DNA Pol: 90 min, 10 µM; for IC50: supplemental file 2, sheet IC50 nontoxic compounds, Pf-apPOL. The method, boiled down:
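Single-point screening used 10 µM compound with 20 nM polymerase, 20 nM hairpin substrate and 6 µM dNTPs for 90 min at 25 °C. Confirmatory titrations (2.5–80 µM) followed fluorescence at three times, and IC50 was derived from a fit including a cooperativity term n.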

The mark [1] stands for this setting: primary screen value by plate and well.
[2] abbreviates: primary screen value of the 186 hits, unit not given.

A word on the IC50: it is the concentration at which inhibition is half-maximal.

P. falciparum apicoplast DNA polymerase (Pf-apPOL), sequence (Q8ILY1 entry or part of it): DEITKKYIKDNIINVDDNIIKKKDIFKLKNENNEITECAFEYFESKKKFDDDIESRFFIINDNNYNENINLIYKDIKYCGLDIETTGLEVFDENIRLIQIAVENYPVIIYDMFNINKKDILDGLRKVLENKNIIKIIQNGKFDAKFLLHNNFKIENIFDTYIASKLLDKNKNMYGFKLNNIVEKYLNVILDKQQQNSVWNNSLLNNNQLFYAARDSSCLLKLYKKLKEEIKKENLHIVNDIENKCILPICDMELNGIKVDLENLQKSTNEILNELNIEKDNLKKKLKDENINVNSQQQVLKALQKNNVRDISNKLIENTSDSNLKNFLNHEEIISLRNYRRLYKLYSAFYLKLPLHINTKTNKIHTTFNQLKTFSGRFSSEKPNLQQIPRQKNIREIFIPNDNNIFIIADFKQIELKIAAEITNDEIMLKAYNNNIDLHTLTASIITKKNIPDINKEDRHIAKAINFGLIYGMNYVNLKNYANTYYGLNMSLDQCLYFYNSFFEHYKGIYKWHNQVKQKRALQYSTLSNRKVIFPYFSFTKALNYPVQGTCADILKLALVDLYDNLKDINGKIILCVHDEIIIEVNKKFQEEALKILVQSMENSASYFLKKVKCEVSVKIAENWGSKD

As to `Cc1cc(C)c(O)c(/N=C/c2cc([N+](=O)[O-])cc(Br)c2O)c1` [KU0046272], the “% inhibition Apo pol 10'” value is 3.169% (DRC-1, concentration 2.5); -1.228% (DRC-1, concentration 5); 12.3955% (DRC-1, concentration 10); 36.9804% (DRC-1, concentration 20); 60.3951% (DRC-1, concentration 40); 90.16% (DRC-1, concentration 80). Further, the “% inhibition Apol 90'” value (DRC-1, concentration 2.5) was -6.623%; the “% inhibition Apol 90'” value (DRC-1, concentration 5) is recorded as -11.6285%; the “% inhibition Apol 90'” value (DRC-1, concentration 10) is given as 2.689%; the “% inhibition Apol 90'” value (DRC-1, concentration 20) amounted to 23.1885%; the “% inhibition Apol 90'” value (DRC-1, concentration 40) is recorded as 44.716%; the “% inhibition Apol 90'” value (DRC-1, concentration 80) was found to be 85.7846%. Moreover, the “% inhibition apPOL 180'” value (DRC-1, concentration 2.5) is -11.4225%; the “% inhibition apPOL 180'” value (DRC-1, concentration 5) was -16.1751%; the “% inhibition apPOL 180'” value (DRC-1, concentration 10) was -3.511%; the “% inhibition apPOL 180'” value (DRC-1, concentration 20) came to 14.6468%; the “% inhibition apPOL 180'” value (DRC-1, concentration 40) stood at 35.3485%; the “% inhibition apPOL 180'” value (DRC-1, concentration 80) came to 85.8895%. Besides, the “% inhibition apPOL 180'” value is -0.688% (DRC-2, concentration 2.5); 1.3% (DRC-2, concentration 5); 1.29% (DRC-2, concentration 10); 17% (DRC-2, concentration 20); 40% (DRC-2, concentration 40); 75% (DRC-2, concentration 80). Moreover, the “% inhibition apPOL 180'” value came to 17% (conc. 20, DRC-2) and 75% (conc. 80, DRC-2). Moreover, the “% inhibition Apo pol 5'” value runs as follows: (DRC-2, concentration 2.5) 7%; (DRC-2, concentration 5) 6%; (DRC-2, concentration 10) 4.64%; (DRC-2, concentration 20) 17%; (DRC-2, concentration 40) 41%; (DRC-2, concentration 80) 54%. The “% inhibition Apo pol 5'” value (conc. 20, DRC-2) came out at 17%. Also, the “% inhibition Apol 40'” value reads like this: (DRC-2, concentration 2.5) 2%; (DRC-2, concentration 5) 4.73%; (DRC-2, concentration 10) 4%; (DRC-2, concentration 20) 19%; (DRC-2, concentration 40) 47%; (DRC-2, concentration 80) 72%. Further, the “% inhibition Apol 40'” value (conc. 40, DRC-2) was determined as 47%. Moreover, the “% inhibition ApPOL 90'” value reads like this: (DRC-2, concentration 2.5) 1%; (DRC-2, concentration 5) 3.45%; (DRC-2, concentration 10) 2.43%; (DRC-2, concentration 20) 20%; (DRC-2, concentration 40) 47%; (DRC-2, concentration 80) 75%. For the same molecule, the “% inhibition ApPOL 90'” value reads like this: (conc. 40, DRC-2) 47%; (conc. 80, DRC-2) 75%. For the same molecule, the “DNA Pol” value under setting [1] amounted to 45 and the “DNA Pol” value under setting [2] is 45.
Take `O=C(Cc1cc(=O)[nH]c(SCc2ccccc2)n1)Nc1ccc2c(c1)OCO2` [Molecule 46]: the IC50 was 15.5 µM.
With `CCCCC(=O)N1CCc2c(nc3cc(-c4ccccc4Cl)[nH]n3c2=O)C1` [Molecule 37], the IC50 stood at 10.4 µM.
On the same count and under the same terms, in the case of `COc1ccccc1CCC(=O)N1CCc2c(nc3cc(-c4ccccc4)[nH]n3c2=O)C1` [Molecule 7] it was 7.2 µM; in that of `COc1ccccc1CC(=O)N1CCc2c(nc3cc(-c4ccccc4Cl)[nH]n3c2=O)C1` [Molecule 49], 12.5 µM.
As for `COc1ccc(C=C2Oc3c(ccc4c3CN(c3ccc5c(c3)OCO5)CO4)C2=O)cc1OC` [KU0199426], the “% inhibition Apo pol 10'” value by setting is: (DRC-1, concentration 2.5) 6.7092%; (DRC-1, concentration 5) 10.8011%; (DRC-1, concentration 10) 30.1784%; (DRC-1, concentration 20) 49.962%; (DRC-1, concentration 40) 63.2111%; (DRC-1, concentration 80) 69.0086%. For the same molecule, the “% inhibition Apol 90'” value is, setting by setting: (DRC-1, concentration 2.5) 9.888%; (DRC-1, concentration 5) 17.5134%; (DRC-1, concentration 10) 37.0525%; (DRC-1, concentration 20) 55.1818%; (DRC-1, concentration 40) 69.2799%; (DRC-1, concentration 80) 72.5355%. The “% inhibition apPOL 180'” value (DRC-1, concentration 2.5) was determined as 14.753%; the “% inhibition apPOL 180'” value (DRC-1, concentration 5) came out at 23.9693%; the “% inhibition apPOL 180'” value (DRC-1, concentration 10) came out at 43.333%; the “% inhibition apPOL 180'” value (DRC-1, concentration 20) is 61.4424%; the “% inhibition apPOL 180'” value (DRC-1, concentration 40) is on record as 79.6981%; the “% inhibition apPOL 180'” value (DRC-1, concentration 80) was 86.1468%. Besides, the “% inhibition apPOL 180'” value (DRC-2, concentration 2.5) is recorded as -0.788%; the “% inhibition apPOL 180'” value (DRC-2, concentration 5) is on record as -86%; the “% inhibition apPOL 180'” value (DRC-2, concentration 10) is given as 16%; the “% inhibition apPOL 180'” value (DRC-2, concentration 20) is 76%; the “% inhibition apPOL 180'” value (DRC-2, concentration 40) is 34%; the “% inhibition apPOL 180'” value (DRC-2, concentration 80) is 39%. Further, the “% inhibition Apo pol 5'” value (DRC-2, concentration 2.5) worked out at 6.46%; the “% inhibition Apo pol 5'” value (DRC-2, concentration 5) worked out at 7.39%; the “% inhibition Apo pol 5'” value (DRC-2, concentration 10) is 27%; the “% inhibition Apo pol 5'” value (DRC-2, concentration 20) was 45%; the “% inhibition Apo pol 5'” value (DRC-2, concentration 40) amounted to 42%; the “% inhibition Apo pol 5'” value (DRC-2, concentration 80) stood at 45%. The “% inhibition Apo pol 5'” value is 27% (conc. 10, DRC-2); 45% (conc. 20, DRC-2); 45% (conc. 80, DRC-2). The “% inhibition Apol 40'” value is, setting by setting: (DRC-2, concentration 2.5) 6%; (DRC-2, concentration 5) -2.71%; (DRC-2, concentration 10) 30%; (DRC-2, concentration 20) 63%; (DRC-2, concentration 40) 43%; (DRC-2, concentration 80) 44%. Further, the “% inhibition Apol 40'” value (conc. 40, DRC-2) was found to be 43%. In addition, the “% inhibition ApPOL 90'” value by setting is: (DRC-2, concentration 2.5) 4.67%; (DRC-2, concentration 5) -12%; (DRC-2, concentration 10) 27%; (DRC-2, concentration 20) 69%; (DRC-2, concentration 40) 41%; (DRC-2, concentration 80) 43%. For the same molecule, the “% inhibition ApPOL 90'” value was 27% (conc. 10, DRC-2) and 43% (conc. 80, DRC-2). For the same molecule, the “DNA Pol” value under setting [1] is 28 and the “DNA Pol” value under setting [2] worked out at 28.
For `Cc1ccc(C)n1-c1ccc(C(=O)NNC(=O)c2ccc3nccnc3c2)cc1` [Molecule 53], the IC50 is 20.4 µM.
Still for that read-out and setting: with `COc1ccc(C2CC(c3ccc(Cl)cc3Cl)Nc3nc(N)nn32)cc1OC` (centres unmarked) [Molecule 43] the figure was 11.7 µM.
Regarding `O=C1C(=Cc2ccncc2)Oc2c1ccc1c2CN(Cc2ccc3c(c2)OCO3)CO1` [KU0199357], the “% inhibition Apo pol 10'” value runs as follows: (DRC-1, concentration 2.5) -2.582%; (DRC-1, concentration 5) 7.288%; (DRC-1, concentration 10) 20.9046%; (DRC-1, concentration 20) 43.4481%; (DRC-1, concentration 40) 58.0959%; (DRC-1, concentration 80) 67.6881%. For the same molecule, the “% inhibition Apol 90'” value was found to be 5.905% (DRC-1, concentration 2.5); 17.1592% (DRC-1, concentration 5); 34.0534% (DRC-1, concentration 10); 57.2301% (DRC-1, concentration 20); 66.3839% (DRC-1, concentration 40); 71.081% (DRC-1, concentration 80). The “% inhibition apPOL 180'” value was determined as 18.2% (DRC-1, concentration 2.5); 33.6281% (DRC-1, concentration 5); 52.8401% (DRC-1, concentration 10); 75.9569% (DRC-1, concentration 20); 84.0502% (DRC-1, concentration 40); 84.7923% (DRC-1, concentration 80). Moreover, the “% inhibition apPOL 180'” value is reported as -7% (DRC-2, concentration 2.5); -87% (DRC-2, concentration 5); 11% (DRC-2, concentration 10); 13% (DRC-2, concentration 20); 28% (DRC-2, concentration 40); 35% (DRC-2, concentration 80). Also, under “conc. 80, DRC-2”, the “% inhibition apPOL 180'” value amounted to 35%. Further, the “% inhibition Apo pol 5'” value reads like this: (DRC-2, concentration 2.5) 6%; (DRC-2, concentration 5) 15%; (DRC-2, concentration 10) 35%; (DRC-2, concentration 20) 37%; (DRC-2, concentration 40) 46%; (DRC-2, concentration 80) 40%. Besides, the “% inhibition Apo pol 5'” value (conc. 10, DRC-2) was found to be 35%. Besides, the “% inhibition Apol 40'” value is given as 1.87% (DRC-2, concentration 2.5); 3% (DRC-2, concentration 5); 31% (DRC-2, concentration 10); 32% (DRC-2, concentration 20); 39% (DRC-2, concentration 40); 34% (DRC-2, concentration 80). For the setting “conc. 80, DRC-2”, the “% inhibition Apol 40'” value came to 34%. The “% inhibition ApPOL 90'” value was -1.19% (DRC-2, concentration 2.5); -9% (DRC-2, concentration 5); 26% (DRC-2, concentration 10); 27% (DRC-2, concentration 20); 36% (DRC-2, concentration 40); 34% (DRC-2, concentration 80). The “% inhibition ApPOL 90'” value (conc. 80, DRC-2) came to 34%. Moreover, the “DNA Pol” value reads like this: under setting [1], 32; under setting [2], 32.
As for `CC(C)(C)OC(=O)COc1ccc2cc(-c3ccccc3)c(=O)oc2c1` [Molecule 81], the IC50 is 35 µM.

Source of the values: PMC9090415, “Discovery of small molecule inhibitors of Plasmodium falciparum apicoplast DNA polymerase” (Journal of Enzyme Inhibition and Medicinal Chemistry, 2022).
